Assay [1] deals with Streptococcus sp. 'group A'. Description: Streptococcus pyogenes SK(-)GAS viability under kanamycin – luminescence, BacTiterGlo, confirmation, counter-screen for streptokinase expression inhibitor project, dose response (AID 1900). It is filed as functional, organism-based. (A counterscreen serves to expose hits that act by an unwanted route or on another target.)
The target in the next assay is T1, Streptokinase A (Streptococcus pyogenes serotype M1, UniProt P10520).
T1 sequence (P10520 whole entry): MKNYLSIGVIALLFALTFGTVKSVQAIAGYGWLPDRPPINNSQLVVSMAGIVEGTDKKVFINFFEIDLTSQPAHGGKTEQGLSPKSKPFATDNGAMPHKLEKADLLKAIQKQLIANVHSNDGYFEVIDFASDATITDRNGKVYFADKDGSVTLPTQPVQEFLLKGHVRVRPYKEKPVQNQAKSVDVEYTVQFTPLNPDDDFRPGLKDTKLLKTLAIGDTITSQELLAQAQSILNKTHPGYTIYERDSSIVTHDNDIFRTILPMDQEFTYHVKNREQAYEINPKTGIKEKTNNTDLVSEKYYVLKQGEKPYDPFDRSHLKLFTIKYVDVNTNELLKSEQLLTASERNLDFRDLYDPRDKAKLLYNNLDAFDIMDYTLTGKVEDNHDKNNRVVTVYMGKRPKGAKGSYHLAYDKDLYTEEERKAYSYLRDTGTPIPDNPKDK
Description: viability-normalized secreted streptokinase activity reduction – plasminogen activation absorbance, OD405, dose response (AID 1914).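 Further: secreted streptokinase activity via plasminogen activation per viability signal from cell pellet.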 It is filed as functional, Streptococcus pyogenes M1 GAS.

The subject of another assay is Streptococcus. Put plainly: GAS UMAA2166 growth inhibition – luminescence, BacTiterGlo, counter-screen for streptokinase expression inhibitor project, dose response (AID 1915).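 Further: potency for reduction of bacterial viability or growth.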 The assay is classed as functional, organism-based.
Another assay deals with T2, Bcl-2-related protein A1 (Mus musculus, UniProt Q07440).
T2 sequence (Q07440 whole entry): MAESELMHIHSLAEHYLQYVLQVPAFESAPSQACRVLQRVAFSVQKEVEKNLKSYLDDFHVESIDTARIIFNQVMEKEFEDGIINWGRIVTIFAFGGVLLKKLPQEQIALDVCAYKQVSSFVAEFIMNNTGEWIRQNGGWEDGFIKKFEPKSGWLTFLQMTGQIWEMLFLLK
The assay is classed as functional.

In assay [2] the target is T3, Ubiquitin-conjugating enzyme E2 N (Homo sapiens, UniProt P61088).
T3 sequence (P61088 whole entry): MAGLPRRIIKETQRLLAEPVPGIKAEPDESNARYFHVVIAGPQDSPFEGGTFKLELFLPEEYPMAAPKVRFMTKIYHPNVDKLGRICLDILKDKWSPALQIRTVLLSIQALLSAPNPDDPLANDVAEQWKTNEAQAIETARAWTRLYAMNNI
The assay is classed as functional.

Assay [3] has as its target T4, Apoptotic protease-activating factor 1 (Homo sapiens, UniProt O14727).
T4 sequence (O14727 whole entry): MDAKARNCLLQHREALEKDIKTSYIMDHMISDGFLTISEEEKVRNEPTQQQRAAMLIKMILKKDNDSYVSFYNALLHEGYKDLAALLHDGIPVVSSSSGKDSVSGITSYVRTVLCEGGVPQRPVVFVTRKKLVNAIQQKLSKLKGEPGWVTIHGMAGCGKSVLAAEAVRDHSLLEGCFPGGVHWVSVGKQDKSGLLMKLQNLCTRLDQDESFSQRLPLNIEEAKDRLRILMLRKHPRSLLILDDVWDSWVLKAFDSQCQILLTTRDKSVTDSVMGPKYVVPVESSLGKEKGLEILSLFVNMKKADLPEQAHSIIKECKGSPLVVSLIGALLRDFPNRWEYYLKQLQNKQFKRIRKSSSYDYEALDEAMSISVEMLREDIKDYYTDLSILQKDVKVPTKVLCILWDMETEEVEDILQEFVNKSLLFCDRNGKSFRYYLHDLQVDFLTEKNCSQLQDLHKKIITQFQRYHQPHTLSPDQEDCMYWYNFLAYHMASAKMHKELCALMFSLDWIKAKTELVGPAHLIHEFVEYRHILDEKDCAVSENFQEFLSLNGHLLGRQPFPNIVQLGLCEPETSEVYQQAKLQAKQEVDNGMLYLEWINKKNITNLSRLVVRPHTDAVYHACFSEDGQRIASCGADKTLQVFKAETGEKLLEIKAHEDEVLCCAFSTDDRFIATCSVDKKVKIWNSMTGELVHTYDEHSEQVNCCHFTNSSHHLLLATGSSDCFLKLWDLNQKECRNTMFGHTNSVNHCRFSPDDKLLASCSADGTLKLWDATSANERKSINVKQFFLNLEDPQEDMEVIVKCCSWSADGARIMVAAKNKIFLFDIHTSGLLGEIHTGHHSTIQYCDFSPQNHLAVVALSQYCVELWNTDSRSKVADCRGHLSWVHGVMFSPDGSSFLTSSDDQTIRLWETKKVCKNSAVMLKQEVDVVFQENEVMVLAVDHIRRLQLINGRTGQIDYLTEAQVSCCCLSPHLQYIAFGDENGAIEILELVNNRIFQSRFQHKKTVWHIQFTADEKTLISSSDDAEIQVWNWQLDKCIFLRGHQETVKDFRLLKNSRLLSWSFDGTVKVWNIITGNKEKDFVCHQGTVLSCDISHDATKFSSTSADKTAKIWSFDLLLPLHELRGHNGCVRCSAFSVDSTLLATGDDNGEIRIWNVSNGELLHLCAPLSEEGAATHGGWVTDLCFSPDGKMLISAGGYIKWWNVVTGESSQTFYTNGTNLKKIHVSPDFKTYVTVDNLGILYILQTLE
It is filed as functional.

For assay [4], the target named is T5, DNA repair protein RAD52 homolog (Homo sapiens, UniProt P43351).
T5 sequence (P43351 whole entry): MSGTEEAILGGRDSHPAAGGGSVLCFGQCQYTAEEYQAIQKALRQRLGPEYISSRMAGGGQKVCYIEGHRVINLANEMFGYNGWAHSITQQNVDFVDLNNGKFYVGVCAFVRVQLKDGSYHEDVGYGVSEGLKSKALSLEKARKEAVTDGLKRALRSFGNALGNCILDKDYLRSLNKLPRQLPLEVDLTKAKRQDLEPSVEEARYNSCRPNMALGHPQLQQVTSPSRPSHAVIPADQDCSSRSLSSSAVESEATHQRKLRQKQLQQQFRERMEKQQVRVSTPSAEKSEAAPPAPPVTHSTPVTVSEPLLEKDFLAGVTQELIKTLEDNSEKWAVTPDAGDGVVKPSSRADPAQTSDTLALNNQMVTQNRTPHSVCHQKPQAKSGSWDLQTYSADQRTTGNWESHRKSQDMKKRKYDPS
The assay is classed as functional, biochemical.

For the next assay, the system named is HEK293. Put plainly: cells. The assay is classed as functional, cell-based. The following applies: Homo sapiens.

Active and inactive are the calls of the source.

Consider `CCCCCCCCCC[N+](C)(C)CC/C=C1/c2ccccc2Sc2ccc(Cl)cc21`, for which the EC50 – broadly, the midpoint of the concentration-response curve – in assay [1] is 1.75 µM (active); at Streptokinase A, 6.63 µM (active); with Streptococcus, 5.62 µM (active). In addition, the IC50 (usually the concentration that gives 50% inhibition) on Bcl-2-related protein A1 was 8.08 µM (active); in assay [2], 3.77 µM (active); in assay [3], 10.6 µM (active).

Regarding `COc1cc(/C=C/c2cc[n+](C)cc2)ccc1OCC(=O)Nc1ccc(Cl)c(Cl)c1`, the half-maximal effective concentration (EC50) in assay [1] was 12.7 µM (active); on Streptokinase A, > 150 µM (not active); in the assay on Streptococcus, 12.9 µM (active). Besides, the values for the IC50 (on Bcl-2-related protein A1; in assay [2]; in assay [3]) were > 20 µM (inactive), 7.74 µM (active) and 22.6 µM (active), respectively. The concentration at half-maximal activity (AC50) (commonly the midpoint of the concentration-response curve, whichever way the signal moves) in assay [4] was 8.27 µM (active).

Consider `O=C(NCCc1ccccc1)C(c1cccs1)N(C(=O)CCl)c1ccc(Cl)cc1` (centres undefined), for which the IC50 in the assay on HEK293 was 4.24 µM (active).

Values taken from ChEMBL document CHEMBL1201862, “PubChem BioAssay data set” (2004).
